Key:
Assay type in all cases: cell-based
[1] = molecular target: T1, PPARα (Homo sapiens, UniProt Q07869); test: Gal4 PPARα reporter (CTF) functional assay in CV1 cells; conditions: versus 10 μM PPAR agonist reference compound
T1 construct: expressed in transfected cells; host or cells: CV1 (African green monkey kidney)
T1 sequence (Q07869 239-466 limits assumed): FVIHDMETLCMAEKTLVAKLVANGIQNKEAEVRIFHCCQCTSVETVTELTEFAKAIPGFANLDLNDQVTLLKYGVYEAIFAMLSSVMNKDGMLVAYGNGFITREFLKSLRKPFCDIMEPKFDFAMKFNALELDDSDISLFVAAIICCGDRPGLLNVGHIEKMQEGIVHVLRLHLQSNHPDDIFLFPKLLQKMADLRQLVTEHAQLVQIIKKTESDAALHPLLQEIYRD
Procedure: (§1) Because GPR40 is known to be activated by ligands to PPARγ, exemplified compounds are examined in Gal4 PPARα, Gal4 PPARδ, and PPARγ reporter assays to determine the selectivity of exemplified compounds for PPAR receptors. CV1 cells, which are derived from the renal tissue of an African green monkey, are transfected with various receptor and reporter plasmids using Fugene. […] After 24 hours incubation with compounds, cells are lysed and luciferase activity is determined as a measure of receptor activation by luminescence. […] The maximum percent stimulation is determined versus maximum stimulation obtained with 10 μM of an appropriate PPAR agonist reference compound, 2-methyl-2-(4-{2-methyl-3-[2-(phenylcarbonyl)-4-(trifluoromethoxy)phenoxy]propoxy}phenoxy)propanoic acid. […] Efficacy was negative for PPARα, PPARδ, and PPARγ is detected with the compound of Example 1 when examined up to […] in the specific PPAR co-transfection (CTF) functional assays described above. […]

[2] = molecular target: T2, PPARδ (Homo sapiens, UniProt Q03181); test: Gal4 PPARδ reporter (CTF) functional assay in CV1 cells; conditions: examined up to 10 M; versus 10 μM PPAR agonist reference compound
T2 construct: expressed in transfected cells; host or cells: CV1 (African green monkey kidney)
T2 sequence (Q03181 211-439 limits assumed): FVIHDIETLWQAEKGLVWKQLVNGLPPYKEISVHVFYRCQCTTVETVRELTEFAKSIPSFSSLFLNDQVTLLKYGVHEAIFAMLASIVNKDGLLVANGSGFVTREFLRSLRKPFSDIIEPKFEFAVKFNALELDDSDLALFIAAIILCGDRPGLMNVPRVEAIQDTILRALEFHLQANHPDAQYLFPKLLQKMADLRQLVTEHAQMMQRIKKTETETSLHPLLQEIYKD
Procedure: as §1

[3] = molecular target: T3, PPARγ (Homo sapiens, UniProt P37231); test: PPARγ reporter (CTF) functional assay in CV1 cells; conditions: examined up to 10 M; versus 10 μM PPAR agonist reference compound
T3 construct: expressed in transfected cells; host or cells: CV1 (African green monkey kidney)
T3 sequence (P37231 1-505): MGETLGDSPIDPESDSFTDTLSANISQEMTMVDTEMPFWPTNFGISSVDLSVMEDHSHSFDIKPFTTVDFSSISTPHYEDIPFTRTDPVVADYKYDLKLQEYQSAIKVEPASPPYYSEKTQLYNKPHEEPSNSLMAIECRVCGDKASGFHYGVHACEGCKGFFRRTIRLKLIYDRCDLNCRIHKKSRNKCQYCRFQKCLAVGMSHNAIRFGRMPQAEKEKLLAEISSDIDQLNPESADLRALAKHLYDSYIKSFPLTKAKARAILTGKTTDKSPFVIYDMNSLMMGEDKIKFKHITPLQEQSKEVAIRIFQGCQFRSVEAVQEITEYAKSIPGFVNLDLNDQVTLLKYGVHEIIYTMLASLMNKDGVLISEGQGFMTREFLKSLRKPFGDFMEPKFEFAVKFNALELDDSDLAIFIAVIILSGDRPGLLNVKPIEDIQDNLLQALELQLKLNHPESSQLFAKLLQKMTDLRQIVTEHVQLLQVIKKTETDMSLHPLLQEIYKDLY
T3 sequence (P19793 1-462 partner): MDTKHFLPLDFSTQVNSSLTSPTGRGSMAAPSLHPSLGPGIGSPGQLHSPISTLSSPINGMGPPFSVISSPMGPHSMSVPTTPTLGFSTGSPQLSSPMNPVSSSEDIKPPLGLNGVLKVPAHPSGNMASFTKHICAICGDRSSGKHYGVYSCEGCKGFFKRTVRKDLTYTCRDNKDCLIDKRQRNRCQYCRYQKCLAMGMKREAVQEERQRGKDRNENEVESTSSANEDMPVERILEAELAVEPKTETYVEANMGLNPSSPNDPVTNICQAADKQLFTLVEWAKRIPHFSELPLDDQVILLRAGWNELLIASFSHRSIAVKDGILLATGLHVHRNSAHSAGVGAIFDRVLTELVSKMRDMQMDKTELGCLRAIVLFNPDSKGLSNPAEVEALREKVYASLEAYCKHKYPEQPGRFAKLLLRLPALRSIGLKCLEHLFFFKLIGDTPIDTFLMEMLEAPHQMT
Procedure: as §1

[4] = molecular target: T4, mGPR40 (Mus musculus, UniProt Q76JU9); test: Mouse beta-arrestin agonist assay with 1% FBS (PathHunter, U2OS mFFAR1)
T4 construct: host or cells: U2OS
T4 sequence (Q76JU9 whole entry): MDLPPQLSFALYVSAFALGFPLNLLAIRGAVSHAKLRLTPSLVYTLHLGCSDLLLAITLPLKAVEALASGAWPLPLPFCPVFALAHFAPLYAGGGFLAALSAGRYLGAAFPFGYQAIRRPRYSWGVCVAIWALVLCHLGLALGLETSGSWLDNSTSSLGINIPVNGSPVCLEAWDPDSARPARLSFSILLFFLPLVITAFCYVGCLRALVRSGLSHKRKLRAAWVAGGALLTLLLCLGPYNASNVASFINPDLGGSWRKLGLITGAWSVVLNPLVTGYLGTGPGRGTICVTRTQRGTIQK
T4 sequence (P32121 whole entry partner): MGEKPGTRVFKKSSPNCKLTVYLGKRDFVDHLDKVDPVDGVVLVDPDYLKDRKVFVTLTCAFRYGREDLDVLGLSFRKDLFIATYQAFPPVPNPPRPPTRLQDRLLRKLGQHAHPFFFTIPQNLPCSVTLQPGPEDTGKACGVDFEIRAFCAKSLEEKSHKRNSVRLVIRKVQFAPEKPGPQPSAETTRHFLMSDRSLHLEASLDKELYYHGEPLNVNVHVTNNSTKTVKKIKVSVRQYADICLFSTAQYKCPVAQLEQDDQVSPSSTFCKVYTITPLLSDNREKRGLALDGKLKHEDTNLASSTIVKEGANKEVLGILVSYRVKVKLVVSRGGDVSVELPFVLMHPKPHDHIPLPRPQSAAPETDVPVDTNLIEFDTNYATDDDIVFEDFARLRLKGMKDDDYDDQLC
Excerpt: Human embryonic kidney (hEK293)-hFFAR1 cells are purchased from DiscoveRx. Human osteosarcoma (U2OS) cells expressing mFFAR1 are developed by DiscoveRX. These cells co-express the Prolink (PK)-tagged GPR40 and the Enzyme Acceptor (EA)-tagged beta-arrestin fusion proteins. If activation of the GPR40 stimulates beta-arrestin recruitment, it would force complementation of the beta galactosidase (B-gal) enzyme fragments, forming a B-gal enzyme that generates a chemiluminescent signal using the DiscoveRx PathHunter detection kit. Cells are incubated overnight at 5,000 cells/well in 384 well plates in culture media containing 1% FBS (fetal bovine serum). Serial diluted compounds in DMSO (2× dilutions to generate 20 concentrations) are step down diluted in culture media containing 1% FBS (fetal bovine serum) and added to cells with a final top concentration starting of 100 μM. After addition of compounds, cells are incubated for 90 min at 37° C. in 5% CO2 incubator, and DiscoveRX kit detection reagents are added. Measurement of the chemiluminescent signal is ascertained with the Envision reader, after a 1-hour incubation at room temperature. Data are fit to a 4 parameter-fit logistics to determine EC50 values; % activity is measured versus maximum response to TAK875 at 1 μM.

CC#C[C@@H](CC(=O)O)c1ccc(OCc2cc(-c3ccccc3C)cn3ncnc23)cc1 [Example 1, (S)-3-[4-(6-o-Tolyl-[1,2,4]triazolo[1,5-a]pyridin-8-ylmethoxy)-phenyl]-hex-4-ynoic acid]
Efficacy for PPARα [1]: negative (Efficacy of <20% is considered negative)
Efficacy for PPARδ [2]: negative (Efficacy of <20% is considered negative)
Efficacy for PPARγ [3]: negative (Efficacy of <20% is considered negative)
EC50 ([4]; 1% FBS, 90 min, read-out: mGPR40 b-arrestin EC50): 4.02 nM
mGPR40 b-arrestin % stimulation max (FA) ([4]; versus maximum response to TAK875 at 1 μM): 160%

— US9617263B2, “Phenyl-triazolo-pyridine compounds” (Eli Lilly and Company, priority 2014, dated 2017)
